In data set [1] the test system is G. parasuis H78. Kind of data set: Mutant prevention concentration (MPC), agar dilution. Format: cell-based, Glaesserella parasuis. The protocol: (§1) The MIC and MBC of G. parasuis H78 in broth and pulmonary epithelial lining fluid (PELF) were determined by the broth dilution method according to the CLSI M07-A9 standard with some modifications. The MPC of G. parasuis H78 in broth was determined by the agar dilution method recommended by CLSI M07-A9. The post-antimicrobial effect (PAE) was determined by the method of bacterial and drug removal after incubation.
On the technique in general: Agar dilution tests growth on a series of plates holding different concentrations.

For data set [2] the following is noted: six-month-old castrated boar ref 22; cited from earlier work.
The test system of data set [3] is G. parasuis H78. Kind of data set: PK-PD integration, sigmoid Emax model on ex vivo time killing in PELF. It counts as cell-based, Glaesserella parasuis. To be noted: ADP/SMZ injection 5/25 mg/kg b.w. i.m. How it is done:
The association between antimicrobial efficiency and the ex vivo PK-PD parameters of AUC0−24h/MIC ratios was simulated by using the model of Emax inhibitory Sigmoid.

Data set [4] is described as follows: Pharmacokinetics in plasma and PELF of healthy pigs after intramuscular injection. Format: in vivo. As to conditions: for T 1/2λ / AUC(0-t) / Cmax / Tmax / MRT last: n = 6; for AUC(0-t) / Cmax / Tmax / MRT last: pig, im; for AUC(0-t): AUC 24h; for MRT last: read-out: MRT 24h. The protocol:
(§2) Twenty-four pigs were randomly divided into 4 groups with 3 healthy groups and 1 infected group. […] The infected group was infected with G. parasuis H78 for 3 days.
(§3) Add 3 mL of a mixture of dichloromethane and acetonitrile, and vortex centrifuge for 5 min at 10,000 rpm for 10 min. Remove the supernatant into a 10 mL centrifuge tube. Add 3 mL of dichloromethane and acetonitrile to the residue. Extract once again as described above. Combine the supernatant twice, and dissolve the residue with 1 mL of the initial mobile phase. Vortex to mix. Add 1 mL of n-hexane, remove the n-hexane layer (upper layer) to achieve the purpose of degreasing, and then use a 0.22-μm filter membrane to obtain a sample purification solution.
(§4) A C18 reverse phase column (250 mm × 4.6 mm, i.d., 5 µm, Agilent, Santa Clara, CA, USA) was used for HPLC, which was executed at a detection wavelength of 270 nm at 25 °C. The mobile phase comprised 0.1% trifluoroacetic acid (phase A) and 100% methanol (phase C) with a mobile phase flow rate of 1 mL/min.
(§5) The urea dilution method was used to determine the volume of PELF as described previously. The concentration of urea and PELF were determined by the urease-glutamate dehydrogenase enzymatic method with an automatic biochemical analyzer (SYNCHRON CX4 PRO; Beckman, Brea, CA, USA) at the National Reference Laboratory of Veterinary Drug Residues (Wuhan, China).

A short description of data set [5]: Pharmacokinetics in plasma and PELF of pigs infected with G. parasuis H78 after intramuscular injection. To be noted: for T 1/2λ: infected group, ADP/SMZ injection 5/25 mg/kg b.w. i.m., n = 6; for Tmax: pig, im. Format: in vivo. The protocol:
as §2, §3, §4, §5

A short description of data set [6]: Adverse reactions after single intramuscular injection in pigs. To be noted: single dose ADP 5, SMZ 25, ADP/SMZ 5/25 mg/kg b.w. How it is done:
as §2
A single dose of 5 mg/kg b.w., 25 mg/kg b.w., and 5/25 mg/kg b.w.

In data set [7] the test system is G. parasuis H78. Kind of data set: Post-antimicrobial effect (PAE). It counts as cell-based, Glaesserella parasuis. How it is done: as §1
A further data set has as its system E. coli (ATCC 25922). Kind of data set: MIC quality control, agar dilution (CLSI M07-A9). It counts as cell-based. As to conditions: Escherichia coli, ATCC25922, quality control strain. From the text: E. coli (ATCC 25922) and chloramphenicol were used as quality control, and the experimental results were only valid when the MIC was within the quality control range.

Where [8] appears, read: PELF, PELF, healthy group, ADP/SMZ injection 5/25 mg/kg b.w. i.m.
Setting [9] is: PELF, PELF, healthy pigs, single drug i.m.: ADP 5 mg/kg b.w., SMZ 25 mg/kg b.w.
[10] abbreviates: plasma, plasma, healthy group, ADP/SMZ injection 5/25 mg/kg b.w. i.m.
Setting [11] is: plasma, plasma, healthy pigs, single drug i.m.: ADP 5 mg/kg b.w., SMZ 25 mg/kg b.w.

As a reminder, the AUC(0-t) is the area under the concentration-time curve up to a stated or last time point. Read a high AUC(0-t) as high exposure. The term Cmax denotes the peak of the concentration-time curve. Usually Tmax stands for the time at which the peak concentration occurs. For orientation: MIC means the lowest concentration that inhibits growth of the organism.

Values after ≈ are worked out from the molar mass of the structure shown. Like-named read-outs stand apart in the source and are kept apart here.

`COc1cc(Cc2cnc(N)nc2N)cc(OC)c1N(C)C` [ADP, Aditoprim]: the MPC with G. parasuis H78 [1] came out at 20 µg/mL. The apparent distribution volume in data set [2] is given as greater than 1.4 L/kg. Also, the elimination half-life in data set [2] is greater than 2.25 h. Moreover, the “(AUC24h/MIC)ex (E = 0)” value came out at 32.25 h in the data set on G. parasuis H78 [3] (healthy group) and 27.19 h in the data set with G. parasuis H78 [3] (infected group). The “(AUC24h/MIC)ex (E = −3)” value in the data set with G. parasuis H78 [3] (healthy group) is listed as 113.28 h; in the data set with G. parasuis H78 [3] (infected group), 102.29 h. Further, the “(AUC24h/MIC)ex (E = −4)” value with G. parasuis H78 [3] (healthy group) was 221.41 h; in the data set with G. parasuis H78 [3] (infected group) it was 204.17 h. Further, the entries for the “E 0” value with G. parasuis H78 [3] (healthy group) and with G. parasuis H78 [3] (infected group) were −4.78 Log10CFU/mL and −4.8 Log10CFU/mL, respectively. The figures for the “EC 50 (AUC0−24h/MIC giving 50% of Emax)” value in the data set on G. parasuis H78 [3] (healthy group) and in the data set with G. parasuis H78 [3] (infected group) were 56.4 h and 48.06 h, respectively. The Emax in the data set on G. parasuis H78 [3] (healthy group) is on record as 2.07 Log10CFU/mL; in the data set on G. parasuis H78 [3] (infected group) it was 2.15 Log10CFU/mL. Besides, the entries for the “Emax − E0” value in the data set with G. parasuis H78 [3] (healthy group) and in the data set on G. parasuis H78 [3] (infected group) were 6.85 Log10CFU/mL and 6.95 Log10CFU/mL, respectively. Besides, the “N (Hill coefficient)” value in the data set on G. parasuis H78 [3] (healthy group) came to 1.5; in the data set with G. parasuis H78 [3] (infected group) it was 1.41. Moreover, the “concentration in PELF after 36 h” value in data set [4] (LOD 0.05 µg/mL, HPLC) is listed as “below LOD”. In addition, the “concentration in plasma after 24 h” value in data set [4] (LOD 0.05 µg/mL, HPLC) is reported as “below LOD”. In addition, the “T 1/2λ” value was determined as 6.05 ± 0.20 h in data set [4] (PELF, healthy group, ADP/SMZ injection 5/25 mg/kg b.w. i.m.); 6.42 ± 0.43 h in data set [4] (PELF, healthy pigs, single drug i.m.: ADP 5 mg/kg b.w., SMZ 25 mg/kg b.w.); 7.97 ± 0.81 h in data set [4] (plasma, healthy group, ADP/SMZ injection 5/25 mg/kg b.w. i.m.); 8.8 ± 0.53 h in data set [4] (plasma, healthy pigs, single drug i.m.: ADP 5 mg/kg b.w., SMZ 25 mg/kg b.w.); 6.48 ± 0.62 h in data set [5] (PELF); 8.45 ± 0.61 h in data set [5] (plasma). Further, the AUC(0-t) is 49100 ± 520 ng·h/mL in data set [4] (setting [8]), 44800 ± 540 ng·h/mL in data set [4] (setting [9]), 7710 ± 260 ng·h/mL in data set [4] (setting [10]) and 7590 ± 240 ng·h/mL in data set [4] (setting [11]). The Cmax in data set [4] (setting [8]) is 6780 ± 110 ng/mL; in data set [4] (setting [9]), 6880 ± 140 ng/mL; in data set [4] (setting [10]), 870 ± 90 ng/mL; in data set [4] (setting [11]) it was 920 ± 80 ng/mL. For the same compound, the Tmax came out at 1.95 ± 0.06 h in data set [4] (setting [8]); 2 h in data set [4] (setting [9]); 2 h in data set [4] (setting [10]); 1 h in data set [4] (setting [11]); 1.96 ± 0.05 h in data set [5] (PELF); 2 h in data set [5] (plasma). Further, the MRT last in data set [4] (setting [8]) was 6.88 ± 0.11 h; in data set [4] (setting [9]), 6.43 ± 0.09 h; in data set [4] (setting [10]), 7.76 ± 0.26 h; in data set [4] (setting [11]) it was 7.63 ± 0.27 h. Moreover, the “adverse reactions after intramuscular injection” value in data set [6] was “No serious adverse reactions”. Besides, the PAE is reported as 0.02 h in the data set on G. parasuis H78 [7] (1 × MIC, exposure 1 h); 0.40 h with G. parasuis H78 [7] (1 × MIC, exposure 2 h); 0.11 h in the data set on G. parasuis H78 [7] (2 × MIC, exposure 1 h); 0.43 h with G. parasuis H78 [7] (2 × MIC, exposure 2 h); 0.20 h with G. parasuis H78 [7] (4 × MIC, exposure 1 h); 0.48 h in the data set on G. parasuis H78 [7] (4 × MIC, exposure 2 h).
With `Cc1cc(NS(=O)(=O)c2ccc(N)cc2)no1` [SMZ, Sulfamethoxazole, reference compound], in the data set on G. parasuis H78 [3] (healthy group), the “E 0” value is listed as −4.4 Log10CFU/mL, the Emax stood at 2.3 Log10CFU/mL, the “Emax − E0” value is recorded as 6.7 Log10CFU/mL and the “N (Hill coefficient)” value stood at 1.56. In the data set on G. parasuis H78 [3] (infected group), the “E 0” value was −4.55 Log10CFU/mL, the Emax was determined as 2.36 Log10CFU/mL and the “N (Hill coefficient)” value is given as 1.52. The “adverse reactions after intramuscular injection” value in data set [6] is listed as “No serious adverse reactions”.
On to `COc1cc(Cc2cnc(N)nc2N)cc(OC)c1OC` [TMP, trimethoprim, reference compound], for which, in data set [2], the apparent distribution volume was 1.4 L/kg and the elimination half-life is 2.25 h.
With `O=C(N[C@H](CO)[C@H](O)c1ccc([N+](=O)[O-])cc1)C(Cl)Cl` [chloramphenicol], 4 µg/mL (≈ 12.4 µM) was the least that counted as inhibitory with E. coli (ATCC 25922) (MIC).
